One test concerns the target T1, PfANT (Plasmodium falciparum, UniProt Q8IIM9).
T1 construct: gene PF3D7_1113300; expressed in the plasma membrane of intact IPTG-induced E. coli from an encoding plasmid
T1 sequence (Q8IIM9 1-343): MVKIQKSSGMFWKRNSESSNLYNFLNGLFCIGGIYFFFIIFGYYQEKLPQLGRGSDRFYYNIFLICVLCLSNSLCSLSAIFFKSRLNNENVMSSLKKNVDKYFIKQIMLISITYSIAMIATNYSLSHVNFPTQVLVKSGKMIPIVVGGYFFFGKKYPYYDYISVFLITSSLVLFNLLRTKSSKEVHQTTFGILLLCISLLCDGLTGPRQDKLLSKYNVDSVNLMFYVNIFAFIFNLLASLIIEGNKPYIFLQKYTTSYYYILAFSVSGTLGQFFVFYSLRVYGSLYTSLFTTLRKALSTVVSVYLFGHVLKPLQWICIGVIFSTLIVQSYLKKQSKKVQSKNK
The test can be described thus: inhibition of [α-32P]ATP uptake into intact E. coli cells. Type of test: cell-based. Conditions: 25 nM [α-32P]ATP, unlabelled competitor at 100-fold concentration, 15 min, 30 °C, 50 mM potassium phosphate pH 7.0. The source says: inhibition of [α-32P]ATP uptake into intact E. coli cells on PfANT

The next test concerns the target T2, TgANT (Toxoplasma gondii, UniProt A0A7J6KCX5).
T2 construct: gene TGRH88_003770; codon-optimised CDS in pET16b, expressed in the plasma membrane of intact E. coli BL21 (DE3); HA tag in the IFA construct
T2 sequence (A0A7J6KCX5 1-413): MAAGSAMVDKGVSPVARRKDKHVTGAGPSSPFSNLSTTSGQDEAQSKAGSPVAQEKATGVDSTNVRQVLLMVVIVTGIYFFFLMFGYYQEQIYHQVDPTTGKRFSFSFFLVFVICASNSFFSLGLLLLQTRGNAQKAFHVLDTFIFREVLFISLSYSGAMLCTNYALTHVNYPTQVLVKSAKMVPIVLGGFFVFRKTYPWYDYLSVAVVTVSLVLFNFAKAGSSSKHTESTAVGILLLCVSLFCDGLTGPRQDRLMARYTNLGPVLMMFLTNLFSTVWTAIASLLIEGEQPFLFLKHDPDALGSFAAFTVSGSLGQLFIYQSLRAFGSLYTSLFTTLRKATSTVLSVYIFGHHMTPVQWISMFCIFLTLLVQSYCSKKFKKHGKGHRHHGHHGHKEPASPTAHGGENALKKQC
The test is described as above. Type of test: cell-based. The settings on record: 25 nM [α-32P]ATP, unlabelled competitor at 100-fold concentration, 15 min, 30 °C, 50 mM potassium phosphate pH 7.0. The source says:
inhibition of [α-32P]ATP uptake into intact E. coli cells on TgANT

This note sets out measurements from publication PMC9286291, “A new adenine nucleotide transporter located in the ER is essential for maintaining the growth of Toxoplasma gondii” (PLoS Pathogens, 2022).

With `Nc1ncnc2c1ncn2[C@@H]1O[C@H](COP(=O)(O)OP(=O)(O)OP(=O)(O)O)[C@@H](O)[C@H]1O` [ATP], the “Uptake(% of control)” value on PfANT is recorded as 23.8 ±1.4 % of control; on TgANT it was 3.4 ±0.25 % of control.

For the molecule `Nc1ncnc2c1ncn2[C@@H]1O[C@H](COP(=O)(O)OP(=O)(O)O)[C@@H](O)[C@H]1O` [ADP], the “Uptake(% of control)” value is on record as 28.9 ±3.8 % of control at PfANT and 3.9 ±0.31 % of control at TgANT.
